Data reported in patent publication US20220411421A1, “4-AMINO-IMIDAZOQUINOLINE COMPOUNDS AND USE THEREOF” (Prime Reach Trading Limited, priority 2019, published 2022).

Experiments:
Format in all cases: cell-based
hTLR8 = molecular target: T1, hTLR8 (Homo sapiens, UniProt Q9NR97); assay: hTLR8 agonistic activity, HEK-Blue hTLR8 SEAP reporter gene assay; conditions: for EC50: HEK-Blue hTLR8 cells, SEAP reporter, about 16 hours incubation, read-out: TLR8 EC50; for Ratio of TLR8 EC50 and TLR7 EC50: TLR8 EC50 / TLR7 EC50, HEK-Blue reporter cells
T1 construct: expressed in transfected cells; host or cells: HEK-Blue hTLR8 cells
T1 sequence (Q9NR97 27-1041): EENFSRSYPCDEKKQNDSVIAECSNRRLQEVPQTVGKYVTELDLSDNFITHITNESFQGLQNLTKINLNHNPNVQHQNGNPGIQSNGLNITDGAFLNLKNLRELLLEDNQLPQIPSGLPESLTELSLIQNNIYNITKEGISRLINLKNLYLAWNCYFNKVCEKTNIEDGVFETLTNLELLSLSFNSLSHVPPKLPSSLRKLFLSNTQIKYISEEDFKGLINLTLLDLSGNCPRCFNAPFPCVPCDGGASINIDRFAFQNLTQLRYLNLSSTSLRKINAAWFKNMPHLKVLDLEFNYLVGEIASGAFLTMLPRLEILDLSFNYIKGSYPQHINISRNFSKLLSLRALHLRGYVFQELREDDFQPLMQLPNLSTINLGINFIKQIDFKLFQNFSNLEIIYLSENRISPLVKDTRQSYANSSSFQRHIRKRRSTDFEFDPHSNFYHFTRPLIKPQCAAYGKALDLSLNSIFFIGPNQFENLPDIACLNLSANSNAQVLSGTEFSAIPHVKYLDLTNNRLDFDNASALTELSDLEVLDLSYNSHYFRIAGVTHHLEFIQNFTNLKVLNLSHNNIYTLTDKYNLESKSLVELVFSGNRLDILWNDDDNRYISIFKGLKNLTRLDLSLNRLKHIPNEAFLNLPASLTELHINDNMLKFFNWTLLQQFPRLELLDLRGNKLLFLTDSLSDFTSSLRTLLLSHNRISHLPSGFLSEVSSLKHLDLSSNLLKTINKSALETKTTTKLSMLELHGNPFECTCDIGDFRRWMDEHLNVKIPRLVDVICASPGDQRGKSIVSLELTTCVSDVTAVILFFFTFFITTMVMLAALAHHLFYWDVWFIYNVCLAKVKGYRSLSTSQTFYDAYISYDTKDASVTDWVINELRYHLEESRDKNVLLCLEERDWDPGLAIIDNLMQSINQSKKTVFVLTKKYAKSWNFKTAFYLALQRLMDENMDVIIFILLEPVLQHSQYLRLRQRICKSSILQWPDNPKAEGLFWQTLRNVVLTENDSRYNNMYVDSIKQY
Method: To analyze the hTLR8 agonistic activity, HEK-Blue hTLR8 cells transfected with SEAP reporter were seeded at 3×10^4 cell/well. […] The HEK-Blue hTLR8 cells served to measure the bioactivity of TLR8 through the SEAP upon NF-κB activation following TLR8 stimulation.
(§1) In the SEAP reporter gene assay as described above, water was used as a negative control. […] The dose-response curves were fit with four parameter logistic curves (SigmaPlot, version 9.0). The EC50-values of the test compounds and reference compounds were calculated.

human PBMCs [1] = assay: Ex vivo cytokine profile: IL-12p70 induction from human PBMCs; conditions: human PBMCs stimulated 24 h, normalized to baseline; FIGS. 2A-C
Method: (§2) Three test compounds (Compound Nos. 2, 9, 10) were used to evaluate the effect on cytokine induction.
(§3) Cryopreserved human PBMCs from 4 normal adult volunteers were purchased from EPBMC® (IMMUNOSPOT®). The PBMCs were thawed at 37° C. for 10 minutes and centrifuged at 300×g at room temperature for 5 minutes. The pelleted PBMCs were transferred to RPMI-1640 medium containing 10% FBS, 1% PSA and incubated at 37° C. with 5% CO2.
(§4) The test compounds and reference compounds were respectively dissolved in DMSO and subsequently 25-fold diluted with PBS to make stock solutions at a concentration of 0.1 mM. The preincubated PBMCs were harvested and resuspended in a fresh RPMI-1640 medium containing 10% FBS and 1% PSA. Approximately 1×10^3 PBMCs were added to each well of 96-well plates and stimulated with 0, 20 or 1000 nM of test compounds for 24 h at 37° C. in a 5% CO2 humidified incubator. The culture supernatant was stocked at −20° C. for analysis of TLR7- and TLR8-mediated cytokine induction. PROCARTAPLEX™ Immunoassay (Invitrogen) was performed to quantify human IL-6, IL-12p70, IP-10 in the culture supernatant according to the manufacturer's instructions. Briefly, the culture supernatant samples were thawed on ice and transferred to a microtiter plate. Magnetic bead-coupled antibodies specific to the target cytokines were added to the samples for analyte capturing. The immobilized target cytokine was specifically detected by biotin-conjugated antibodies and then labelled with streptavidin-Phycoerythrin (PE). The PE-labelled magnetic beads were detected and identified by LUMINEX™ 200™ analyzer. Data acquisition, processing and analysis was conducted by using XPONENT™ 3.1 software. The target cytokines were normalized to their baseline cytokine levels and presented as relative cytokines.

human PBMCs [2] = assay: Ex vivo cytokine profile: IL-6 induction from human PBMCs; conditions: human PBMCs stimulated 24 h, normalized to baseline; FIGS. 1A-C
Method: Cryopreserved human PBMCs from 4 normal adult volunteers were purchased from EPBMC® (IMMUNOSPOT®). The PBMCs were thawed at 37° C. for 10 minutes and centrifuged at 300×g at room temperature for 5 minutes.
as §4, with “The preincubated PBMCs were harvested and resuspended in a fresh RPMI-1640 medium containing 10% FBS and 1% PSA.” left out

hTLR7 = molecular target: T2, hTLR7 (Homo sapiens, UniProt Q9NYK1); assay: hTLR7 agonistic activity, HEK-Blue hTLR7 SEAP reporter gene assay; conditions: for EC50: HEK-Blue hTLR7 cells, SEAP reporter, about 16 hours incubation, read-out: TLR7 EC50
T2 construct: expressed in transfected cells; host or cells: HEK-Blue hTLR7 cells
T2 sequence (Q9NYK1 27-1049): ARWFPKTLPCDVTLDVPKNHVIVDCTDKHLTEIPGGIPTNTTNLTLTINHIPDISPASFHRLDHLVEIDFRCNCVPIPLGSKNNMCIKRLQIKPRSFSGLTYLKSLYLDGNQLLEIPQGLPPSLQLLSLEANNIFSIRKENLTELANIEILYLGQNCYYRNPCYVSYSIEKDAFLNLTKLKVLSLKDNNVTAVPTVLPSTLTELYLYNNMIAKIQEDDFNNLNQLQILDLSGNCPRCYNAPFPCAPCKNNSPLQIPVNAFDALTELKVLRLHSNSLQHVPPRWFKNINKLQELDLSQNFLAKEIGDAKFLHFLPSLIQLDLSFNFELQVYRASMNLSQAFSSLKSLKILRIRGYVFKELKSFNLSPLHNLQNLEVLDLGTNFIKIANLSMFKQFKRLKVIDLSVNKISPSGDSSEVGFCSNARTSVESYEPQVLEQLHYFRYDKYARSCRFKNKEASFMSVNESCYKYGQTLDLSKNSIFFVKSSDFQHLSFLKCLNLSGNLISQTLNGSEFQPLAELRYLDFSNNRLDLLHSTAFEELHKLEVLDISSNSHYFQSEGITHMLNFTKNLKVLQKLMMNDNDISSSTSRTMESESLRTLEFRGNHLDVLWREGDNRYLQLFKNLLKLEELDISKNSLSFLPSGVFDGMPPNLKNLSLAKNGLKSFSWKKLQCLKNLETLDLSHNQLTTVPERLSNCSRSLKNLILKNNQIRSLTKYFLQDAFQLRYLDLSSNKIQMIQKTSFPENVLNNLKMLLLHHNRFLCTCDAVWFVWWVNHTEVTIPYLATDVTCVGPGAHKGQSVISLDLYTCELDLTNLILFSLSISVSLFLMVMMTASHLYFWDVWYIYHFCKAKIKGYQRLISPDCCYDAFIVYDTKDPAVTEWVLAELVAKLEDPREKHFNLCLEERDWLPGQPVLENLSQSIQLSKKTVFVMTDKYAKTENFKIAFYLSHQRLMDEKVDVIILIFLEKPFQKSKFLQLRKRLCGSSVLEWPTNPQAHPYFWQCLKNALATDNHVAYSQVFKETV
Method: To analyze the hTLR7 agonistic activity, HEK-Blue hTLR7 cells transfected with secreted embryonic alkaline phosphatase (SEAP) reporter were seeded at 3×10^4 cell/well. […] The SEAP reporter is designed specifically for measuring secreted placental AP (alkaline phosphatase) in conditioned cell culture medium from transfected cells. The HEK-Blue hTLR7 cells served to measure the bioactivity of TLR7 through SEAP upon NF-κB activation following TLR7 stimulation.
as §1

human PBMCs [3] = assay: Ex vivo cytokine profile: IP-10 induction from human PBMCs; conditions: human PBMCs stimulated 24 h, normalized to baseline; FIGS. 3A-C
Method: as §2, §3, §4

SMILES	EC50 (hTLR8) [nM]	Ratio of TLR8 EC50 and TLR7 EC50 (hTLR8)	relative IL-12p70 induction (human PBMCs [1])	relative IL-6 induction (human PBMCs [2])	TLR7 and TLR8 dual agonistic activity (in words) (hTLR7; HEK-Blue hTLR7 and hTLR8 reporter cells, summary of Table 1)	EC50 (hTLR7) [nM]	relative IP-10 induction (human PBMCs [3])
CCCCCc1nc2c(N)nc3ccccc3c2n1CC(C)(C)O [Compound 2, 1-(4-amino-2-pentyl-1H-imidazo[4,5-c]quinolin-1-yl)-2-methylpropan-2-ol]	267 ± 13.5	3.98	high IL-12p70 induction activity	low IL-6 induction activity	the most potent TLR7/8 dual agonist	67.1 ± 8.3	high IP-10 induction activity
CC(C)(O)Cn1c(CCCCC(F)(F)F)nc2c(N)nc3ccccc3c21 [Compound 10, 1-(4-amino-2-(5,5,5-trifluoropentyl)-1H-imidazo[4,5-c]quinolin-1-yl)-2-methylpropan-2-ol]	4746 ± 20.5	8.74	high IL-12p70 induction activity	low IL-6 induction activity	–	543 ± 29.4	high IP-10 induction activity
CC(C)(O)Cn1c(CCCC(F)(F)F)nc2c(N)nc3ccccc3c21 [Compound 9, 1-(4-amino-2-(4,4,4-trifluorobutyl)-1H-imidazo[4,5-c]quinolin-1-yl)-2-methylpropan-2-ol]	965 ± 14.7	7.49	high IL-12p70 induction activity	low IL-6 induction activity	–	129 ± 10.9	high IP-10 induction activity
CCCN(CCC)C(=O)C1=Cc2ccc(-c3ccc(C(=O)N4CCCC4)cc3)cc2N=C(N)C1 [Ref. 3, VTX2337, reference compound]	–	–	–	low IL-6 induction activity	–	–	–
CCCc1nc2c(N)nc3ccccc3c2n1CC(C)(C)O [Compound 1, 1-(4-amino-2-propyl-1H-imidazo[4,5-c]quinolin-1-yl)-2-methylpropan-2-ol]	5299 ± 14.4	22.36	–	–	–	237 ± 7.4	–
